Each block holds one compound with its values, some of them ahead of it. Active and inactive are the calls of the source. No cut-off for these calls is given here.
Key:
A549 [1] = assay: Upregulation of DMBA-induced CYP1B1 expression level in human A549 cells incubated for 24 hrs; format: functional, cell-based; conditions: dose 1-10 µM
NCI-H460 [2] = assay: Upregulation of DMBA-induced CYP1B1 expression level in human NCI-H460 cells incubated for 24 hrs; format: functional, cell-based; conditions: dose 1-10 µM
A549 [3] = assay: Downregulation of DMBA-induced CYP1B1 expression level in human A549 cells at 5 uM incubated for 24 hrs; format: functional, cell-based
A549 [4] = assay: Inhibition of DMBA-induced AKT overexpression in human taxol resistance A549 cells incubated for 24 hrs; format: functional, cell-based; conditions: dose 5.0 µM
A549 [5] = assay: Inhibition of DMBA-induced ERK1/2 overexpression in human taxol resistance A549 cells at 5 uM incubated for 24 hrs; format: functional, cell-based
NCI-H460 [6] = assay: Inhibition of DMBA-induced AKT overexpression in human taxol resistance NCI-H460 cells at 5 uM incubated for 24 hrs; format: functional, cell-based
NCI-H460 [7] = assay: Antiproliferative activity against human taxol resistance human NCI-H460 cells assessed as reduction in cell viability incubated for 24 hrs by MTT assay; format: functional, cell-based; conditions: dose 5.0 µM
NCI-H460 [8] = assay: Inhibition of DMBA-induced CYP1B1 overexpression in human NCI-H460 cells assessed as increase in FAK level incubated for 24 hrs by densitometry analysis; format: functional, cell-based; conditions: dose 5.0 µM
NCI-H460 [9] = assay: Inhibition of DMBA-induced CYP1B1 overexpression in human NCI-H460 cells assessed as increase in SRC level at 5 uM incubated for 24 hrs by densitometry analysis; format: functional, cell-based
NCI-H460 [10] = assay: Inhibition of cell migration in DMBA-induced human NCI-H460 cells at 5 uM incubated for 48 hrs by inverted microscopic analysis; format: functional, cell-based
NCI-H460 [11] = assay: Inhibition of DMBA-induced CYP1B1 overexpression in human NCI-H460 cells assessed as increase in snail level incubated for 24 hrs by densitometry analysis; format: functional, cell-based; conditions: dose 5.0 µM
NCI-H460 [12] = assay: Inhibition of DMBA-induced CYP1B1 overexpression in human NCI-H460 cells assessed as increase in N-cadherin level incubated for 24 hrs by densitometry analysis; format: functional, cell-based; conditions: dose 5.0 µM
NCI-H460 [13] = assay: Inhibition of DMBA-induced CYP1B1 overexpression in human NCI-H460 cells assessed as increase in Vimentin level incubated for 24 hrs by densitometry analysis; format: functional, cell-based; conditions: dose 5.0 µM
A549 [14] = assay: Inhibition of DMBA-induced CYP1B1 overexpression in human A549 cells assessed as effect on E-cadherin level at 5 uM incubated for 24 hrs by densitometry analysis; format: functional, cell-based
NCI-H460 [15] = assay: Inhibition of DMBA-induced CYP1B1 overexpression in human NCI-H460 cells assessed as decrease in Vimentin level at 5 uM incubated for 24 hrs by densitometry analysis; format: functional, cell-based
A549 [16] = assay: Inhibition of DMBA-induced CYP1B1 overexpression in human A549 cells assessed as decrease in Vimentin level at 5 uM incubated for 24 hrs by densitometry analysis; format: functional, cell-based
CYP1B1 = target: T1, CYP1B1 (Homo sapiens, UniProt Q16678); assay: Inhibition of recombinant human CYP1B1 assessed as inhibition ratio at 100 nM using 7-ethyl-0-resorufin as substrate incubated for 30 mins in presence of NADPH by EROD assay relative to control; conditions: recombinant enzyme
T1 sequence (Q16678 whole entry): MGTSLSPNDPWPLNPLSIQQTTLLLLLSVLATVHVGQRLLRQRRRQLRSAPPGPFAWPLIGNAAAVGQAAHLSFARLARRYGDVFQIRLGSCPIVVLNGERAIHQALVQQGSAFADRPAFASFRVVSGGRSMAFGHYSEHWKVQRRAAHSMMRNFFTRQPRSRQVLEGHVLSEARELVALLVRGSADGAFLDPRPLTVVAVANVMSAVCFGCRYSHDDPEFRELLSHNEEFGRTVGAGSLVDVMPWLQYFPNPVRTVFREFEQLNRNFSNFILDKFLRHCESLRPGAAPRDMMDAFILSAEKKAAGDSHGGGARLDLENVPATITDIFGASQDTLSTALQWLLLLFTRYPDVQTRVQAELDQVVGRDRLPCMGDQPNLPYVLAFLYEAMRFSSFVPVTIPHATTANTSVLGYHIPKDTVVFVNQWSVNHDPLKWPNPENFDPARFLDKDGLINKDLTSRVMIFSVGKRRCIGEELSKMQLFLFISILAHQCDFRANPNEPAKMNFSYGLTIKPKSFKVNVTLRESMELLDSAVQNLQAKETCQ

Cytochrome P450 1A2 = target: T2, Cytochrome P450 1A2 (Homo sapiens, UniProt P05177); assay: Inhibition of recombinant human CYP1A2 using 7-ethyl-0-resorufin as substrate incubated for 30 mins in presence of NADPH by EROD assay
T2 sequence (P05177 whole entry): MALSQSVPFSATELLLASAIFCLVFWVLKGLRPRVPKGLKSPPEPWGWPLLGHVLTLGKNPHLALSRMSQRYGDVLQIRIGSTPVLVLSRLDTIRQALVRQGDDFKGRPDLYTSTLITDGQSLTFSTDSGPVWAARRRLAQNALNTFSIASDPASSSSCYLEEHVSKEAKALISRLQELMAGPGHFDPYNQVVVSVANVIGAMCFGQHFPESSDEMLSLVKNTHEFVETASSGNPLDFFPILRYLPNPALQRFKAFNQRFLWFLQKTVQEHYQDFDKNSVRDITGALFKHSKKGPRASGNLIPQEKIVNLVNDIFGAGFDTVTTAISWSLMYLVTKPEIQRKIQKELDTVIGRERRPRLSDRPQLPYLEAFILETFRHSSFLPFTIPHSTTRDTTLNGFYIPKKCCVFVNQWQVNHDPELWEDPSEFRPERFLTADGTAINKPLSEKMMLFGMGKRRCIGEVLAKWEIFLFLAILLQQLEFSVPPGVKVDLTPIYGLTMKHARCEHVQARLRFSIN

A549/Taxol = assay: Inhibition of AKT pathway in human A549/Taxol cells assessed as decrease in phosphorylated AKT level at 5 uM incubated for 24 hrs; format: cell-based
A549 [17] = assay: Inhibition of DMBA induced taxol resistance in human A549 cells; format: functional, cell-based; conditions: dose 2.5-10 µM
A549/TR [18] = assay: Synergistic antiproliferative activity against human A549/Taxol cells assessed as increase in taxol by measuring combination index at 3.75 uM incubated for 72 hrs in presence of 0.25 uM taxol by MTT assay; format: functional
A549/TR [19] = assay: Synergistic antiproliferative activity against human A549/Taxol cells assessed as increase in taxol by measuring combination index at 3.75 uM incubated for 72 hrs in presence of 1 uM taxol by MTT assay; format: functional
A549/TR [20] = assay: Synergistic antiproliferative activity against human A549/Taxol cells assessed as increase in taxol by measuring combination index at 7.50 uM incubated for 72 hrs in presence of 0.50 uM taxol by MTT assay; format: functional; conditions: dose 7.5 µM
A549/TR [21] = assay: Synergistic antiproliferative activity against human A549/Taxol cells assessed as increase in taxol by measuring combination index at 30 uM incubated for 72 hrs in presence of 0.50 uM taxol by MTT assay; format: functional
[22] = target: Proto-oncogene tyrosine-protein kinase Src (Homo sapiens) (UniProt P12931); assay: Inhibition of SRC pathway in human A549/Taxol cells assessed as decrease in phosphorylated FAK level at 2.5 to 5 uM incubated for 24 hrs; format: cell-based; conditions: dose 2.5-5 µM
Chain of Proto-oncogene tyrosine-protein kinase Src (Homo sapiens) (P12931 2-536 limits assumed): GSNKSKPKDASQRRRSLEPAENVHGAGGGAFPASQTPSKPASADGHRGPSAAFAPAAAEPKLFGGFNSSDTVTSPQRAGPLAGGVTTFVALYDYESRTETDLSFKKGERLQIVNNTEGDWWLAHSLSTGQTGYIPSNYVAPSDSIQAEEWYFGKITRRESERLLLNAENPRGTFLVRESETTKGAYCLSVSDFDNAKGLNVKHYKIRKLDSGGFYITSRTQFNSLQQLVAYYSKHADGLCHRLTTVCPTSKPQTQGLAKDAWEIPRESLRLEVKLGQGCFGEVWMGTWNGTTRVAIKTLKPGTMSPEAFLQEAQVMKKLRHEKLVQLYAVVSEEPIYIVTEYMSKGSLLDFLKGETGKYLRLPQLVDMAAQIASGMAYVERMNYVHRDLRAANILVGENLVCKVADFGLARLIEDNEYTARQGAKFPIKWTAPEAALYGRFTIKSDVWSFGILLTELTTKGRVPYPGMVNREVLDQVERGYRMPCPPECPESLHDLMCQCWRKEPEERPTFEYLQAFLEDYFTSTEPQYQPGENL

A549/TR [23] = assay: Downregulation of Vimentin expression level in human A549/Taxol cells at 2.5 to 10 uM incubated for 24 hrs by densitometry analysis; format: functional, cell-based; conditions: dose 2.5-10 µM

inhibition at 0.5 h, 0.1 µM (CYP1B1): 88.9%
IC50 (Cytochrome P450 1A2): 2390 nM
Compound: COc1cc(/C=C/c2ccc(OC)cc2OC)cc(OC)c1
Activity (A549 [1]): Dose-Dependent Effect
Activity (NCI-H460 [2]): Dose-Dependent Effect
Activity (A549 [3]): inactive
inhibition (A549 [4]): Dose-Dependent Effect
inhibition (A549 [5]): Active
inhibition (NCI-H460 [6]): Active
Activity (NCI-H460 [7]): Dose-Dependent Effect
inhibition (NCI-H460 [8]): Dose-Dependent Effect
inhibition (NCI-H460 [9]): inactive
inhibition (NCI-H460 [10]): Active
inhibition (NCI-H460 [11]): Dose-Dependent Effect
inhibition (NCI-H460 [12]): Dose-Dependent Effect
inhibition (NCI-H460 [13]): Dose-Dependent Effect
inhibition (A549 [14]): inactive
inhibition (NCI-H460 [15]): inactive
inhibition (A549 [16]): inactive
inhibition (A549/Taxol): Active

inhibition [22]: Active
Compound: COc1cc(Nc2nc(-c3nc(-c4ccccc4F)cs3)cs2)cc(OC)c1
inhibition (A549 [17]): Dose-Dependent Effect
CI (A549/TR [18]): 0.55
CI (A549/TR [19]): 1.89
CI (A549/TR [20]): 0.66
CI (A549/TR [21]): 0.2
Activity (A549/TR [23]): inactive
